Measured values from patent publication US20180008579A1, “PHARMACEUTICAL COMPOSITION FOR PREVENTING OR TREATING CHRONIC MYELOID LEUKEMIA AND METHOD USING THE SAME” (MEDPACTO INC., priority 2015, published 2018).

Columns and labels:
TT-CML affected mouse [1] = assay: Flow cytometry of GFP/BCR-ABL+ KLS+ and KLS- cells in TT-CML affected mouse; assay type: in vivo; settings: TEW-7197 2.5 mg/kg/day every three days, oral, 30 days, peripheral blood
Method: GFP/BCR-ABL^+c-Kit^+Lineage^−Sca-1^+(KLS^+) cells (bold box) and c-Kit^+Lineage^−Sca-1^− (KLS^−) cells (dotted box) in the peripheral blood were analyzed by flow cytometry, and the results are shown in FIG. 4A.

TT-CML affected mouse [2] = assay: Peripheral blood leukocyte number, spleen and cell lineage in drug-administered TT-CML affected mouse; assay type: in vivo; settings: TEW-7197 2.5 mg/kg/day every three days, oral
Source text: The number of leukocyte in the peripheral blood of the drug-administered TT-CML affected mouse is shown in FIG. 3A (n=5, NS: not significant), a photograph of the spleen thereof is shown in FIG. 3B (bar: 10 mm), and the weight of the spleen thereof is shown in FIG. 3C (n=3). Further, percentages (%) of T cell (detected using anti-CD4 antibody and anti-CD8 antibody), B cell (detected using anti-B220 antibody), and bone marrow cell (detected using anti-Macl antibody and anti-Gr-1 antibody) among the total BCR-ABL1-GFP^+ cells in the peripheral blood of the TEW-7197-administered TT-CML affected mouse are shown in FIG. 3D (n=3, NS: not significant).

[3] = test system: human CML-initiating cells; assay: Colony formation of human CML-initiating cells (CD34+CD38-Lin-) co-cultured with OP-9 stromal cells; assay type: cell-based; settings: cells of three CML patients, co-culture with OP-9, 3% oxygen; combination compared to single treatment of dasatinib; FIGS. 6A-6C
Method: Bone marrow mononuclear cells (Allcells, Cat. No. 06-255, 06-620, and 147742, CA) of three patients with chronic CML were prepared. Bone marrow mononuclear cells were stained with anti-CD34(8G12) antibody (BD Biosciences), anti-CD38(HIT2) antibody (BD Biosciences), anti-CD3(SK7) antibody (BD Biosciences), anti-CD16(3G8) antibody (BD Biosciences), anti-CD19(SJ25C1) antibody (BD Biosciences), anti-CD20([…]) antibody (BD Biosciences), anti-CD14(MfP9) antibody (BD Biosciences), and anti-CD56(NCAM16.2) antibody (BD Biosciences). A mouse antibody cocktail recognizing CD3, CD16, CD19, CD20, CD14 and CD56 was used to identify Lineage^- (Lin^-) cells, and CD34^+CD38^-Lin^- cells were separated. […] A control group was prepared in the same manner, except that DMSO was used. Cells were harvested and washed with PBS, and then cultured in methyl cellulose (Stem cell technologies, GFM3434) to measure colony formation of human CML-initiating cells.

[4] = test system: TKI-resistant T315I TT-CML affected mouse; assay: Flow cytometry of T315I BCR-ABL-GFP+ KLS+ and KLS- cells in TKI-resistant T315I TT-CML affected mouse; assay type: in vivo; settings: ponatinib 15 mg/kg/day, TEW-7197 2.5 mg/kg/day every three days, oral, 30 days; peripheral blood; FIG. 5C
Method: T315I BCR-ABL-GFP^+KLS^+ cells (bold box) and KLS^− cells (dotted box) in the peripheral blood were analyzed by flow cytometry, and the results are shown in FIG. 5A.

`Cc1cccc(-c2[nH]c(CNc3ccccc3F)nc2-c2ccc3ncnn3c2)n1` [TEW-7197, N-((4-([1,2,4]triazolo[1,5-a]pyridin-6-yl)-5-(6-methylpyridin-2-yl)-1H-imidazol-2-yl)methyl)-2-fluoroaniline] was tested, and the “percentage of KLS+ cells among BCR-ABL1-GFP+ CML cells” value (TT-CML affected mouse [1]; FIG. 4C) was “remarkably decreased”, the “percentage of KLS- cells among BCR-ABL1-GFP+ CML cells” value (TT-CML affected mouse [1]; dasatinib 5 mg/kg/day, FIG. 4B) was “remarkably decreased” and the “differentiation of bone marrow cells among the BCR-ABL1-GFP+ cells in peripheral blood” value (TT-CML affected mouse [2]; FIG. 3D) was “did not affect differentiation of bone marrow cells”. For the same compound, the “number of leukocyte in the peripheral blood” value (TT-CML affected mouse [2]; dasatinib 5 mg/kg/day, about 30 days, compared to vehicle, FIG. 3A) was “increased”, the “splenomegaly (spleen weight)” value (TT-CML affected mouse [2]; dasatinib 5 mg/kg/day, about 30 days, compared to vehicle, FIGS. 3B, 3C) was “promoted” and the “colony formation of human CML-initiating cells” value [3] was “significantly inhibited colony formation”. The “percentage of T315I BCR-ABL-GFP+KLS+ cells” value [4] was “remarkably decreased”.
